{"source": "paper PMC7794433", "about": "“Peptide signaling without feedback in signal production operates as a true quorum sensing communication system in Bacillus subtilis” (Communications Biology, 2021)", "key": {"B. subtilis proteases [1]": {"test_system": "B. subtilis proteases", "assay": "Biological degradation of ComX in B. subtilis spent medium", "format": "in vitro ADME, Bacillus subtilis", "details": "spent CM medium max 7 h old; assumption from low protease content", "method": "cells per unit volume (cell density), N(t) , and the time cells were producing the molecule, t . The molecule of interest can potentially get degraded by the degradation rate γ(t ). In the differential form and as a function of time one can express concentration of signal molecule SM(t) as:\ndddddd (tt ) = PPdddd (tt ) NN (tt ) − γγ (tt )SSSS (tt ) eq S1 […]\nspent medium obtained after 24 h of incubation with PS -216 wt (when the proteases accumulated in enough high concentration). In our case, however, the spent media were maxi mal 7 h old and the protease content of spent CM growth medium used in current study […]\n(Supplementary Fig. 7). Therefore , we assumed that biological degradation of SM (ComX) is negligible under conditions in this study. Under the buffered conditions (as in CM growth […]\nexperiments where we applied our model. Therefore, in our modeling we assumed that degradation rate of SM is negligible (γ(t) ≈ 0) and the eq S 1 can be simplified to: […]\nNormalized fluorescence intensity per cell Normalized fluorescence intensity per cell\nSupplementary Figure 8: The second replicate (for first replicate, see Fig 5g,h) of the distribution of gene expression measured by single cell fluorescence microscopy. Gene expression level was measured as Na-fluoresceinate standard normalized mean fluorescence intensity per cells expressing comQ -yfp (a) and srfA -cfp (b). […]"}, "[2]": {"assay": "Aging of purified ComX stock solution followed by HPLC", "format": "physicochemical", "details": "4 °C", "method": "spectrometer (Bruker, Germany). FlexControl 3.3 software (Bruker, Germany) was used to control the instrument, FlexAnalysis 3.3 to process data and to calibrate spectra (Bruker, […]\ntwo-sided), for about 2-fold compared to the original medium (Fig. S6b ). To further increase […]\nrecombinant proteins in E. coli and gained altogether significant 5-fold increase (P < 0.0001, t-value= 9.6, two- sided) compared to the original medium. The overnight LB E. coli ED367 culture, supplemented with 100 µg/mL of Amp, grown in 37 °C (200 rpm), was transferred to fresh TB medium (1 % inoculum) supplemented by 20 mM MgCl2 and 100 µg/mL of Amp.\nAfter about 2 h and 45 min of incubation at 37 °C (200 rpm) when culture reached OD650 of […]., the spent growth medium was removed by culture centrifugation (5000 g, 5 min, room temperature). […]\nβ-galactosidase assay. […] To improve the sensitivity of the assay, the plates were then warmed to 30 °C, 25 μL ortho- nitrophenyl-β-galactoside (ONPG) substrate (8 mg/mL) was added and the absorbance (420 nm) in 1 min intervals was read using a Multiscan Spectrum […]\nSupplementary Figure 5: Maximum normalized response measured as the srfA promoter activity of B. subtilis PS-216 (∆comQ, PsrfAA -yfp) (no signal production) to the exogenously added signal molecule, SM, (ComX). […]\nSS buffer at 4 °C as measured by HPLC. […]"}, "B. subtilis proteases [3]": {"test_system": "B. subtilis proteases", "details": "24 h MSgg spent medium of PS-216 wt; 24 h incubation; ref Spacapan et al.22; cited from earlier work", "source_text": "page 5: cells per unit volume (cell density), N(t) , and the time cells were producing the molecule, t . The molecule of interest can potentially get degraded by the degradation rate γ(t ). […] The protease content of CM growth medium used in t ..."}, "[4]": {"test_system": "ComX biosensor BD2876 (ΔcomQ, srfA-lacZ)", "assay": "β-galactosidase response of ComX biosensor BD2876 to spent medium or added ComX", "format": "cell-based, Bacillus subtilis", "details": "≈1 nM ComX in PS-216 ΔcomQ spent medium (positive control)", "procedure": "Overnight cultures were grown in competence medium[57] (CM) supplemented with L-histidine, L-leucine, and L-methionine (50 μg mL^–1). Prior to fermenter inoculation, the cells were washed twice by replacing the spent medium of overnight culture with SS buffer[58]. Cell suspension was inoculated into 1.2 L of fresh CM (2% inoculum). Incubation was performed at 37 °C with mixing at 700 rpm and the closed off air flow. In instances where we tested O2 impact on SM concentration the medium was saturated with O2 by ensuring a supply of compressed air at a flow rate of 1 L min^-1. The dissolved O2 was measured using the O2 polarized electrode InPro 6820 (Mettler Toledo). No pH correction was performed or anti foaming agents were added.\ncontrol) ▲,,, or supplemented with the wt strain spent medium 10 times diluted by spent medium of the\nΔcomQ strain (experimental) ▲,,; The spent medium of the PS-216 (ΔcomQ) strain was obtained in the\nparallel fermenter batch system. The strains PS-216 wt and PS-216 (ΔcomQ) were grown in the fermenter batch\nsystem where oxygen supply was limited (a) or supplied to the saturation (b).\nto 3 independent experiments."}, "[5]": {"test_system": "srfA promoter in B. subtilis PS-216 (∆comQ, PsrfAA-yfp)", "assay": "srfA promoter response (Yfp fluorescence per cell) to exogenously added ComX", "format": "cell-based, Bacillus subtilis", "method": "In our model, the expression level of the srfA operon serves as a measure for the response (RM) to the signal molecule SM, represented by ComX. To study how RM depends on SM we evaluated promoter activity of srfA in the B. subtilis PS-216 (∆comQ, PsrfAA-yfp), which carries the markerless deletion of comQ[42] and is therefore signal-deficient. […] The response to SM was sigmoidal. […] We have therefore taken the 4 hours response curve (Fig. 4a) as a reference for further communication system analysis. The sigmoidal functions can typically describe the relationship between transcription factors and promoter activities, and can be modeled by the Hill equation[43],[44]. […] This agrees with the research showing that two molecules of the ComA homodimer cooperatively bind to the two promoter regions located upstream of the RNAP binding sites of srfA[13],[20],[45].\nTo quantify a response (RM) to different signal molecule (SM) concentrations at the population level we used the signal deficient B. subtilis PS-216 (∆comQ PsrfAA-yfp), which carries the comQ marker-less deletion and the srfA promoter tagged with the Yfp fluorescent reporter (Supplementary Table 1).\n(final concentration of 50 µg mL^–1). […] The plate was placed on a microtiter plate shaker (1 mm orbit, 1100 rpm) that was positioned in the humidified chamber to eliminate sample evaporation. To improve the homogeneity of the conditions (airflow, temperature) on the microtiter plate the microtiter plate lids were elevated by 2 mm relative to the surface of microtiter plate. The plates were incubated at 37 °C for 3, 4, or 6 h. The cells were then re-suspended and fixed in 200 µL of 1% agarose containing DAPI dye (6 µg mL^−1).\nFor quantitative analysis we used laser confocal fluorescence microscopy (Zeiss, LSM 800). The images were acquired by two laser channels—488 nm laser for acquiring fluorescence from Yfp protein and 405 nm laser to acquire fluorescence from DAPI dye. The acquired images were 1024 × 1024 pixels in size with 16-bit color depth at 20× optical magnification (objective 20×/NA 0.4, Zeiss) and were analyzed with Fiji-ImageJ[59] custom script. Four images per well of microtiter plate were taken, each image contained about 350 cells. The measure for amount of Yfp on image was integrated density i.e., the product of mean fluorescence intensity and area taken by the cells. The response per cell was quantified as the ratio of image integrated density by the number of cells obtained from DAPI image.\nThe analytical form of the model equation for response per cell to the signal during bacterial growth in the fermenter batch system (Eq. 3, eq S11) was derived and fitted to the experimental data by the help of Wolfram Mathematica 11.0 (Wolfram Research, Inc.). […]"}}, "note": "“Also recorded” adds a separate entry of the source.", "data": [{"sequence": "ADPITRQWGD [ComX, isoprenylated (farnesylated) quorum sensing signal peptide of B. subtilis, HPLC purified from E. coli ED367]", "values": [{"measurement": "Biological degradation in spent CM medium", "setting": "B. subtilis proteases [1]", "result": "negligible"}, {"measurement": "Half-life time of ComX", "setting": "[2]; purified ComX stock (typically 200 nM) in SS buffer with BSA 50 μg/mL, n = 8 independent experiments", "result": "about 50 days"}, {"measurement": "Chemical stability", "setting": "[2]; purified ComX, SS buffer", "result": "strong chemical stability"}, {"measurement": "Degradation in MSgg spent medium", "setting": "B. subtilis proteases [3]", "result": "significant level only after incubating ComX for 24 h; also recorded: can degrade"}, {"measurement": "Biosensor BD2876 response to added purified ComX", "setting": "[4]", "result": "strongly responded"}, {"measurement": "ComX concentration at which the highest response value is reached", "setting": "[5]; 37 °C, CM medium, n = 4", "result": "around 10 nM"}, {"measurement": "Shape of response to ComX", "setting": "[5]; 4 h incubation, exogenously added ComX", "result": "sigmoidal"}, {"measurement": "Lower limit response (LLR), critical ComX concentration required to induce quantifiable response", "setting": "[5]; first significantly positive response (lower 95% confidence level > 0), 37 °C, CM medium", "result": "0.2 to 0.5", "unit": "nM"}, {"measurement": "Km", "setting": "[5]; read-out: Km, ComX concentration at which half of the maximum response is achieved, Hill fit (Eq. 2) of srfA promoter Yfp fluorescence per cell, CM medium, 37 °C, 3, 4 or 6 h incubation, BSA added, n = 4", "result": "3 to 5", "unit": "nM"}]}]}
